We go through one molecule from patent US20060094790A1, “Use of sphingosine kinase activator as skin disease treating agent and method for treating skin diseases using the same” (priority 2004, published 2006).

The subject of data set [1] is rats. The following applies: rat, in vivo.
Method: (§1) Those tests were performed based on “Toxicity Test Standards for Pharmaceutical Products” disclosed by the Korea Food & Drug Administration.
In data set [2] the test system is hairless mouse. Put plainly: Recovery of calcium gradient on epidermis, acute disruption model by tape stripping. It is filed as in vivo. The settings on record: 1.0% in PEG:EtOH=7:3, after tape stripping, compared to control. As for the experimental part:
To determine the effect of recovering skin barrier effects obtained by the compound according to the present invention, the compound was evaluated for the effect of recovering a calcium ion gradient in the epidermis.
The calcium gradient in the epidermis plays very important role in maintaining homoeostasis of the skin barrier function. For example, when a hairless mouse is subjected to acute disruption on its back by tape stripping, the calcium ion gradient in the epidermis is lost. Therefore, it is possible to evaluate the effect of a test sample upon recovery of a damaged skin barrier by observing recovery of the calcium gradient loss in an acute disruption model.
In the following test, K6PC-5 according to the present invention was evaluated for the effect upon variations in calcium gradient in an acute disruption model.
Tissues non-treated with the sample were provided as control, and tissues were collected right after the tape striping, and 3, 6 and 24 hours after the tape stripping. Then, the tissues treated with K6PC-5 (1.0% in PEG:EtOH=7:3) were compared with controls, which are treated by calcium ion capture cell chemical dyeing. More particularly, each freshly collected tissue sample was fixed with a fixing solution comprising 2% glutaraldehyde, 2% formaldehyde, 90 mM potassium oxalate and 1.4% sucrose and refrigerated at 4° C. […]

Data set [3] has as its system rabbits. The following applies: rabbit, in vivo.
Method: as §1
Data set [4] has as its target T1, sphingosine kinase (Mus musculus, UniProt Q8CI15).
T1 construct: host or cells: F9-12 cells
Put plainly: Activation of sphingosine kinase (C17-sphingosine-1-phosphate production, HPLC). The following applies: F9-12 cells, 24 hours, 50 μM compound, PMA 300 nM. It is filed as cell-based. As for the experimental part:
The following test for activation of sphingosine kinase was performed to determine whether the effects of the above compounds upon intracellular calcium signal transfer as described in Example 1 were caused by activation of sphingosine kinase.
F9-12 cells were treated with 300 nM of PMA ([…]) as positive control, and 50 μM of each of K6PC4 and K6PC-5 for 24 hours and collected. Then, activity of sphingosine kinase was measured as production of C17-sphingosine-1-phosphate based on 50 μg of protein. Sphingosine-1-phospate was extracted from the collected cells by the steps of: (1) treating with trypsin-EDTA, (2) centrifugal separation at 1,500 rpm for 10 minutes, and (3) washing with PBS, followed by freeze-drying. Then, PBS was added to the freeze-dried product and the resultant product was treated with ultrasonic waves to destroy cells. Sphingosine-1-phosphate was determined by HPLC, and OPA (o-phthalaldehyde) reagent and boric acid buffer were added to the extracted sample and the mixture was reacted at room temperature for 20 minutes. For the HPLC quantitive analysis, fluorescence intensity was measured at each wavelength of 340 nm and 455 nm with a solution in 90% acetonitrile, and a ratio to the internal standard was calculated.

Data set [5] deals with human body. The settings on record: in vivo.
Method: as §1
Data set [6] has as its system SD rat. Briefly: Inhibition of wrinkles and skin aging, UV-induced wrinkle model. It is filed as in vivo. As to the method:
Generally, continuous exposure to UV causes wrinkles and side effects such as sun burn and skin irritation, resulting in stimulation of skin aging.
To perform the evaluation, an SD rat with three wrinkles is irradiated with UVB under an intensity of 130 mJ/cm^2 at its rear leg […] for 6 weeks. Then, 10 μl (1% in 80% EtOH) of K6PC-5 was applied to the skin of rear leg right after each time of UV irradiation, UV irradiation being performed 5 times per week during 6 weeks from the start day of the UV irradiation. Nine weeks after the treatment, the rat was anesthetized with albutin and the wrinkles were photographed. Additionally, wrinkle-forming portions were replicated by using an exafine hydrophilic vinyl polysiloxane impression material. The replicated images were analyzed quantitively for shadow images by using an image analyzer.

The subject of data set [7] is fibroblasts. Put plainly: Collagen synthesis in fibroblasts (PICP, collagen measuring kit). It is filed as cell-based. The settings on record: 72 hours; for Amount of PICP produced in fibroblasts (average ± SEM): non-treated control 47.1 ± 9.7. As to the method:
The following experiment was performed by using fibroblasts in order to evaluate the effect of sphingosine kinase activator upon collagen synthesis.
Each of K6PC4, K6PC-5, K6PC-7 and K6PC-9 was dissolved in DMSO at a concentration of 0.3 and 1.0 μg/ml. The solutions were used as samples and analyzed for collagen synthesis after incubation for 72 hours. 72 hours after the treatment of the sample, culture solution was discarded, cells were washed with serum-free DMEM three times, and cells were cultured again by using flesh serum-free DMEM. After incubation, supernatant in each well was combined and analyzed for the amount of PICP (procollagen type I C-peptide) by using a collagen measuring kit. The standard solution contained in the collagen measuring kit was diluted with a sample and absorption at 450 nm was measured to construct a standard concentration curve (see the following Table 2).
To an antibody-coated microtiter plate comprising a primary collagen antibody applied unifomrily thereto, 100 μl of an antibody-POD conjugate solution and the cell supernatant collected as described above were added, followed by incubation at 37° C. for 3 hours, to induce an antigen-antibody reaction. Then, the reaction mixture was subjected to washing and color developing. After the reaction, the reaction mixture developed a yellow color, wherein the yellowness depended on reaction degrees. Also, 96 well plates developing a yellow color were determined at 450 nm by using a microtiter plate reader.

T1 sequence (Q8CI15 1-381 isoform Q8CI15-3): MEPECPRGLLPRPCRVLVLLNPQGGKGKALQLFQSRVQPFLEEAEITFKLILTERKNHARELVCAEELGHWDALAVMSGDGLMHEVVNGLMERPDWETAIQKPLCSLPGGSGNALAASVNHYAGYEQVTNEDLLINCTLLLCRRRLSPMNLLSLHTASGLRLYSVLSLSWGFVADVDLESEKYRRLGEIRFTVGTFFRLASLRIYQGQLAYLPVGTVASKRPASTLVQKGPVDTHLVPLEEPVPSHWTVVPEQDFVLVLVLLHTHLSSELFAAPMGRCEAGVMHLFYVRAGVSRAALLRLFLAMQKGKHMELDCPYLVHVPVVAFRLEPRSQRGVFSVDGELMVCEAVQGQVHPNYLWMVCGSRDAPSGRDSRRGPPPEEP

Take `CCCCCCCC(=O)C(CCCCCC)C(=O)NC(CO)CO` (centres unmarked) [K6PC-5, N-(1,3-dihydroxyisopropyl)-2-hexyl-3-oxo-decanamide]: the “Single dose oral toxicity test result” value in data set [1] is listed as “No irritation”. Also, the “recovery of calcium gradient in the epidermis” value in data set [2] was “began to be recovered, from 3 hours after the treatment, to form the normal calcium gradient rapidly”. Also, the “Ophthalmic mucous membrane irritation test result” value in data set [3] is “No irritation”. The “C17-SIP Production” value in data set [4] (non-treated control 51.72) amounted to 75.59 pmol/min/mg. Moreover, the “increase in production of sphingosine-1-phosphate” value in data set [4] (versus non-treated control) is reported as “about 46%”. Also, the “Human body application test result” value in data set [5] is on record as “No irritation”. Further, the “inhibition of wrinkles compared to vehicle control” value in data set [6] (10 μl of 1% in 80% EtOH after each UVB irradiation (130 mJ/cm^2), 6 weeks, replica image analysis) is “about 63%”. In addition, the “erythema caused by UV compared to vehicle control” value in data set [6] (10 μl of 1% in 80% EtOH after each UVB irradiation, skin photograph FIG. 4b) was “decrease in erythema”. Besides, the “Amount of PICP produced in fibroblasts (average ± SEM)” value in data set [7] (0.3 μg/ml) stood at 111.2 ± 3.9; in data set [7] (1.0 μg/ml), 96.0 ± 5.6. For the same molecule, the “collagen synthesis increase as compared to the non-treated control” value in data set [7] (fibroblasts, 0.3 or 1.0 μg/ml (concentration not given)) is recorded as “about 2.4 times”.
